Laboratory results from patent US6361764B1, “Insoluble s-triazine derivatives and their use as UV filters” (Societe L'Oreal S.A., priority 1996, dated 2002).

Experiments:
[1] = solid UV absorption spectrum of a film of the screened compound dispersed in white petroleum jelly; format: physicochemical; settings: 5 g screened compound per 100 g petroleum jelly "Codex 236", film 10 Am thick, Shimadzu UV 2101 PC spectrophotometer
Source text: This 2,4,6-tris[(3′-benzotriazol-2-yl-2′-hydroxy-5′-methyl)phenylamino]-s-triazine was screened at 50 μm through a screen of stainless steel-gauze stainless steel assembly. Next, it was dispersed in white petroleum jelly sold under the trade name “Codex 236” by the company Sarega at the melting point of the petroleum jelly and in a proportion of 5 g of screened 2,4,6-tris[(3′-benzotriazol-2-yl-2′-hydroxy-5′-methyl) phenylamino]-s-triazine per 100 g of petroleum jelly. This mixture was then treated with ultrasound in order to ensure homogeneous dispersion. A film 10 Am thick was analysed.
The solid UV absorption spectrum was obtained using a Shimadzu UV 2101 PC spectrophotometer and is represented in FIG. 1.
The solid UV absorption spectrum of this 2,4,6-tris[(3′-benzotriazol-2-yl-2′-hydroxy-5′-tert-octyl)phenylamino]-s-triazine was measured according to the same procedure as in Example 1. This spectrum is represented in FIG. 2.

[2] = UV absorption in CHCl3; format: physicochemical

SMILES	solid UV absorption spectrum: range absorbed [1]	melting point [°C]	UV λmax ([2]; CHCl3) [nm]	UV εmax ([2]; CHCl3, at λmax)
Cc1cc(Nc2nc(Nc3cc(C)cc(-n4nc5ccccc5n4)c3O)nc(Nc3cc(C)cc(-n4nc5ccccc5n4)c3O)n2)c(O)c(-n2nc3ccccc3n2)c1 [Example 1, 2,4,6-tris[(3′-benzotriazol-2-yl-2′-hydroxy-5′-methyl)phenylamino]-s-triazine]	absorbs throughout the UV radiation range (280-400 nm)	> 270		
CC(C)(C)CC(C)(C)c1cc(Nc2nc(Nc3cc(C(C)(C)CC(C)(C)C)cc(-n4nc5ccccc5n4)c3O)nc(Nc3cc(C(C)(C)CC(C)(C)C)cc(-n4nc5ccccc5n4)c3O)n2)c(O)c(-n2nc3ccccc3n2)c1 [Example 2, 2,4,6-tris[(3′-benzotriazol-2-yl-2′-hydroxy-5′-tert-octyl)phenylaminol]-s-triazine]	absorbs throughout the UV radiation range (280-400 nm)		326	68,600
